{
  "source": "patent US20080103209A1",
  "about": "“Compounds And Methods For Treating Non-Inflammatory Pain Using Ppar Alpha Agonists” (The Regents of The University of California, priority 2004, published 2008)",
  "key": {"mice": {"test_system": "mice", "experiment": "Formalin-evoked pain behavior (hind paw licking)", "type": "in vivo, mouse", "conditions": "for early and late phase formalin-evoked nociception, combination with anandamide: 0.1 μg/paw of each; for anti-inflammatory effect (paw weight) after formalin: 50 μg/paw, 45 minutes after intraplantar formalin, C57BL/6J mice", "description": "Administration of formalin into the mouse hind paw evokes a pain behavior consisting of two temporally distinct phases of licking and flexing of the injected limb (Dubuisson, et al., Pain 4, 161-74 (1977)). The first phase, which starts immediately after formalin injection and lasts 5-10 min, is due to activation of nociceptive fibers and is accompanied by the local release of nitric oxide and adenosine [Dickenson, et al., Neurosci Lett 83, 207-11 (1987); Omote, et al., Brain Res 787, 161-4 (1998); Omote et al., 2000; Liu, et al., J Neurochem 80, 562-70 (2002)]. Following a quiescent interval of 10-15 minutes, a second phase of nociceptive behavior appears, which is associated with local inflammation [Rosland, et al., Pain 42, 235-42 (1990)] and central sensitization [Coderre, et al., J Neurosci 12, 3665-70 (1992)]. […] (2001); Farquuar-Smith, 2002]. […] The effects of PEA in C57BL/6J mice in which the PPARα gene had been deleted by homologous recombination (PPARα^−/−)[Lee, et al., Mol Cell Biol 15, 3012-22 (1995)] were examined to determine whether PPARα contributes to these properties.\nAlthough PPARα is known to regulate the inflammatory response [Devchand, et al., Nature 384, 39-43. (1996); Cabrero, et al., Curr Drug Targets Inflamm Allergy 1, 243-8 (2002); Berger, et al., Annu Rev Med 53, 409-35 (2002); Chinetti, et al., Inflamm Res 49, 497-505 (2000)], its roles in the modulation of acute nociceptive pain remain unexplored. A series of structurally diverse PPAR-α agonists were tested for their ability to reduce pain behavior in an animal model of chemical tissue damage. Injection of formalin into the mouse hind paw evokes a nocifensive behavior consisting of two distinct phases. The first phase results from direct activation of nociceptive fibers and starts immediately after formalin administration, while the second phase develops over a period of approximately 60 min and is associated with local inflammation and central sensitization.\nMice received intraplantar injections of formalin (5% vol/vol, 10 μl) in saline containing polyethylene glycol (5%) and Tween 80 (5%). The duration of paw licking was monitored by an observer for periods of 0-15 min (early or first phase) and 15-45 min (late or second phase) immediately after formalin administration.\nFormalin test. Formalin (5%, 10 μl)-induced paw licking was monitored for 0-15 min (first phase) and 15-45 min (second phase) as described (Calignano, et al., Nature 394, 277-81 (1998)."}, "PKAα catalytic subunit": {"test_system": "PKAα catalytic subunit", "experiment": "Immunoblot of lumbar spinal cord extracts, PKAα catalytic subunit", "type": "in vivo, mouse", "conditions": "neuropathic mice, PEA 30 mg-kg^−1 s.c. once daily for two weeks; change not statistically significant", "description": "Opiate analgesics have a high liability to produce tolerance, a progressive loss of pharmacological activity caused by repeated drug administrations (Waldhoer et al., Annu Rev Biochem, 73, 953 (2004)). To assess whether tolerance develops to the antihyperalgesic effects of PPARα agonists, PEA (30 mg-kg^−1, s.c.) was administered once a day for 14 consecutive days from the time of surgery, measuring mechanical and thermal hyperalgesia at day 7 and 14.\nImmunoblot analysis. Lumbar spinal cord tissue was weighed, homogenized in Tris-HCl (20 mM, pH 7.5), 10 mM NaF, 150 mM NaCl, 1% Nonidet P-40, 1 mM PMSF, 1 mM Na3VO4, leupeptin and trypsin inhibitor (10 μg/ml). After 1 h, the tissue lysates were subjected to centrifugation ay 100,000×g for 15 min at 4° C. Protein concentrations were estimated using a Bio-Rad protein assay and bovine serum albumin as a standard. Equal amounts of protein (20 μg) were dissolved in Laemmli sample buffer, boiled for 5 min, subjected to sodium dodecyl sulphate-polyacrylamide gel electrophoresis (8% polyacrylamide) and transferred onto nitrocellulose membranes at 240 mA for 40 min at room temperature. […] The films were scanned and densitometrically analysed with a model GS-700 imaging densitometer."}, "PPARβ/δ": {"target": "T1, PPARβ/δ (Homo sapiens, UniProt Q03181)", "T1 construct": "expressed in transfected cells", "T1 sequence (Q03181 1-441)": "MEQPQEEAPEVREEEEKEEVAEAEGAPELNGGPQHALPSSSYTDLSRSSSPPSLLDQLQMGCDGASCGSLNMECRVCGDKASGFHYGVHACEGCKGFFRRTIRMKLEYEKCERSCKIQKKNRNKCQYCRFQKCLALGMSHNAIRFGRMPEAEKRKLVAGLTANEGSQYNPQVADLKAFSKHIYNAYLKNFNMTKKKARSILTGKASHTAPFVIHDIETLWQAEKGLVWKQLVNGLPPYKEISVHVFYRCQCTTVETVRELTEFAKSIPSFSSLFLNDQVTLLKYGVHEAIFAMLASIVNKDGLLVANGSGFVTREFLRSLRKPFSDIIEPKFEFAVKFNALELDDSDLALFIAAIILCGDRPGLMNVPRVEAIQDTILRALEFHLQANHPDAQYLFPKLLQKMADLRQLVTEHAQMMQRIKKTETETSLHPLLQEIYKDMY", "experiment": "PPARβ/δ transactivation assay", "type": "cell-based", "conditions": "concentrations as high as 20 μM", "description": "Transactivation assays were performed as previously described [Fu et al., Nature 425:90-93 (2003)]."}},
  "data": [
    {"smiles": "CC(C)(Sc1ccc(CCN(CCCCC2CCCCC2)C(=O)NC2CCCCC2)cc1)C(=O)O", "note": "[GW7647]", "values": [
      {"measurement": "early and late phase formalin-evoked nociception, combination with anandamide", "setting": "mice; Swiss mice", "result": "Mimicry of this synergism"},
      {"measurement": "anti-inflammatory effect (paw weight) after formalin", "setting": "mice", "result": "absence of anti-inflammatory effects"},
      {"measurement": "formalin pain in PPARα−/− mice", "setting": "mice; 50 μg i.pl.", "result": "failed to respond"},
      {"measurement": "first- and second-phase nociception", "setting": "mice; Swiss mice, i.pl. together with formalin, GW7647 0.1-50 μg, Wy-14643 50-200 μg, fenofibric acid 100-400 μg", "result": "attenuated first- and second-phase nociception in a dose-dependent manner"},
      {"measurement": "average half-maximal effective dose (ED50) to reduce first-phase pain", "setting": "mice; intraplantar with formalin, Swiss mice, ten experiments", "result": 9.9, "unit": "µg"}
    ]},
    {"smiles": "CCCCCCCCCCCCCCCC(=O)NCCO", "note": "[PEA, palmitoylethanolamide]", "values": [
      {"measurement": "spinal tissue levels of PKA α catalytic subunit", "setting": "PKAα catalytic subunit", "result": "slightly decreased"},
      {"measurement": "early and late phase formalin-evoked nociception, combination with anandamide", "setting": "mice; Swiss mice", "result": "synergistically inhibit"},
      {"measurement": "anti-inflammatory effect (paw weight) after formalin", "setting": "mice", "result": "absence of anti-inflammatory effects"},
      {"measurement": "formalin pain in PPARα−/− mice", "setting": "mice; 50 μg i.pl.", "result": "absent"},
      {"measurement": "ED50 of antinociceptive effect in the formalin model", "setting": "mice; i.pl.", "result": 7.4, "unit": "µg"},
      {"measurement": "phase I and II formalin pain in wild-type mice", "setting": "mice; wild-type C57BL6 mice, 50 μg i.pl.", "result": "attenuated these responses only in wild-type animals"},
      {"measurement": "PPARβ/δ activation", "setting": "PPARβ/δ", "result": "did not activate"}
    ]}
  ]
}
